Experimental data as given in the METLIN SMRT retention time set (Domingo-Almenara et al. 2019).

Assay: gradient 5% acetonitrile 3 min, to 50% in 2 min, to 85% in 15 min, held 3 min, 100 µL/min
Settings: column: Zorbax Extend-C18 2.1 x 50 mm; eluents: water / acetonitrile, 0.1% formic acid
Method in brief: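 Pure standards were run in mixtures of ~100 molecules by HPLC coupled to a quadrupole time-of-flight mass spectrometer. The column was a Zorbax Extend-C18 (2.1 × 50 mm, 1.8 μm) at 100 μL/min, with water and acetonitrile each containing 0.1% formic acid, in positive and negative ionization mode. Dead and dwell volumes were 40 μL and 900 μL. Retention time was taken from computationally picked adduct peaks, each manually inspected, with data collected over 3 months.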

Compound	RP-LC retention time [s]
CCOC(=O)c1c(C)[nH]c(C(=O)N2CCC(CC(=O)NCc3ccc(CC)cc3)CC2)c1C	869
CCn1ncc(N2CCCC(CC(=O)O)C2)cc1=O (configuration not stated)	632
O=C(Nc1cc(-c2ccccc2)nn1CCO)c1ccsc1	726
COCCn1nc2n(c1=O)CCN(C(=O)c1cc(C3CC3)[nH]n1)CC2	596
CC(C)c1noc(-c2cccnc2N2CCCN(Cc3cccc(F)c3)CC2)n1	708
COc1ccc2[nH]cc(CCNC(=O)CC3CCN(C(=O)C4CCCCC4)CC3)c2c1	757
COc1ccc(CCN2CCC(CNS(=O)(=O)c3cc(-c4cc(C)no4)cs3)CC2)cc1	718
Cc1ccccc1CNC(=O)C1(C)CCCN(C(=O)NCc2ccco2)C1 (configuration not stated)	809
Cc1c(Cl)cccc1NC(=O)N1CCCC(C)(C(=O)NCc2ccccc2)C1 (configuration not stated)	1010
Cc1cccc(S(=O)(=O)N2CC3CN(C(=O)CCC(C)C)CC(C2)O3)c1	871
Brc1ccc(-c2ccc(CNCc3cccnc3)o2)c(Br)c1	686
CCSc1nc(-c2ccccc2)c(NC(=O)c2ccc(S(=O)(=O)N(C)C)cc2)s1	1000
COc1cc2c(C(=O)OCCc3ccccn3)cn(-c3ccccc3)c(=O)c2cc1OC	670
CC(=O)N1c2ccc(S(=O)(=O)N3CCCCC3)cc2CC1C(=O)NCCN(C)C1CCCCC1 (configuration not stated)	655
CCNC(=O)CCc1nc2ccccc2n(CC(=O)Nc2ccccc2OCC)c1=O	775
CC(C)n1c(-c2cccc(C(=O)NCc3ccncc3)c2)nc2cccnc21	599
CCOCCCNC(=O)Nc1ccc2nc(N3CCOCC3)cc(C)c2c1	596
Cc1cc(-c2nnc3sc(COc4ccc(C(C)(C)C)cc4)nn23)n[nH]1	967
Cc1nc(-c2csc(S(=O)(=O)N3CCC(C(=O)NCC4CCCO4)CC3)c2)no1 (configuration not stated)	725
CC(C)C(=O)N1CCc2ccc(NC(=O)c3ccc(Cl)c(Cl)c3)cc2C1	901
CCN(Cc1ccccc1)C(=O)C1CCN(S(=O)(=O)c2ccc3c(c2)sc(=O)n3CC)CC1	953
COc1ccccc1C1(CNS(=O)(=O)c2ccc(NC(=O)C(C)C)cc2)CCOCC1	806

Compound	RP-LC retention time [s]
CN1CCN(CCNC(=O)c2cccc(N3CCNC(c4ccccc4)C3)n2)CC1 (configuration not stated)	549
COc1ccc(CC(=O)N2CCCC2c2cc(C(C)C)on2)cc1OC (configuration not stated)	800
O=C(Cc1nnc2cc(-c3nc(C4CC4)no3)ccn12)N1CCc2ccccc2C1	780
CCn1c(=O)oc2cc(-c3noc(-c4ccnn4C)n3)ccc21	903
O=C(c1ccco1)N1CCC(F)(C(=O)N2CCCC2)CC1	653
Cc1ccccc1NC(=O)c1cn2c(n1)CCCC2	586
Fc1cc(CN2CCC(Cc3nnc(C4CCOCC4)o3)C2)ccc1Cl (configuration not stated)	603
CC(C)CN1C(=O)c2ccccc2C(C(=O)N2CCN(c3ccccn3)CC2)C1c1cccs1 (configuration not stated)	674
CN(C)S(=O)(=O)c1ccc2c(c1)N(CC(=O)NCCCc1ccccc1)C(=O)C1CCCCN21 (configuration not stated)	955
CC1CCCN(c2ccn3c(=O)n(CC(=O)Nc4ccc(F)c(Cl)c4)nc3n2)C1 (configuration not stated)	834
Cc1nc(-c2cc(S(=O)(=O)N3CCC(C(=O)N4CCOCC4)CC3)c(C)s2)no1	742
CCCNC(=O)CCc1nc2ccccc2n(CC(=O)Nc2ccc(OCC)cc2)c1=O	788
COc1ccccc1CCNC(=O)Cn1ccc2ccccc21	891
O=C(Nc1ccc(F)c(F)c1)c1cc(C2CC2)on1	860
CCC(c1cccs1)N1C(=O)[C@H]2CN(S(=O)(=O)c3cccc(Cl)c3)C[C@H]2C1=O (some centres not stated)	1060
CCC(C)(C)C(=O)N1CCC2(CCc3nn(Cc4ccccc4)c(=O)n3CC2)CC1	811
COc1ccc(NC(=O)N2[C@H]3CC[C@@H]2c2cncnc2C3)c(C)c1	634
Cc1ccc(CCNC(=O)CN2C(=O)CSc3cccn3-c3ccccc32)cc1	965
CCOc1nccnc1N1CCC(N(C)C(=O)c2ccc(C#N)cc2)C1 (configuration not stated)	751
CCC(CC)C(=O)N1CCCC(c2nc(CNC(=O)C3CCC3)cs2)C1 (configuration not stated)	777
Cn1c(=O)c2nc(SCCC(=O)Nc3ccc(Br)cc3)n(C)c2n(C)c1=O	757
CCn1c(=O)n(CC)c2cc(NC3=C(C(=O)Nc4ccccc4)S(=O)(=O)c4ccccc43)ccc21	947

Compound	RP-LC retention time [s]
CSc1ccc(CNC(=O)C2CCCN(C(=O)c3[nH]c(C)cc3C)C2)cc1 (configuration not stated)	701
Cc1ccc(C(=O)N2CCCCCCN(C)C(=O)[C@@H]3CCC[C@@H]32)s1	912
Cc1ccsc1CCNC(=O)C1CCN(S(=O)(=O)c2c(C)nn(-c3ccccc3)c2C)CC1	955
Cc1nc(-c2ccccc2F)sc1C(=O)NC1CC1	827
CCCS(=O)(=O)N1CCC2(CC1)CC(N1CCN(c3ccccc3)CC1)CCO2 (configuration not stated)	538
CCCN(C(=O)c1cccc(OC)c1)c1nc(-c2ccccc2)cs1	1350
CCN1C(=O)c2c(C(=O)NCCc3ccccc3)ncn2CC1(C)C(=O)NC1CCCC1 (configuration not stated)	756
O=C(NCC1CCCO1)N1CCN(c2nc3ccccc3n(Cc3ccccc3)c2=O)CC1 (configuration not stated)	850
CC(C)N(C(=O)CSc1nc2ccccc2[nH]1)c1ccccc1	650
CC1CCCCN1C(=O)c1ccc2c(c1)Sc1ncccc1C(=O)N2C(C)C (configuration not stated)	810
CN(Cc1ccc(OC(F)(F)F)cc1)C1CCc2nnc(C3CCOCC3)n2CC1 (configuration not stated)	616
CCOCCCNC(=O)NC1CCN(c2nc3ccccc3n(C)c2=O)CC1	690
CCOc1ccc(N2C(=O)C3N=NN(Cc4nc(-c5ccc(OC(C)C)cc5)no4)C3C2=O)cc1 (configuration not stated)	1120
O=S1(=O)C[C@H](N2CCN(c3ccccn3)CC2)[C@@H](S(=O)(=O)c2ccc(F)cc2)C1	1040
Cc1ccc(NC(=O)C2CCCN(c3ncnc4c3oc3ccccc34)C2)cc1C (configuration not stated)	868
CCCNC(=O)c1ccc(-c2nc3cc(NS(=O)(=O)c4cccs4)ccc3n2C)cc1	662
CCC(=O)N(C)CCc1noc(-c2ccc(C(=O)NCCN(CC)CC)cc2)n1	597
O=C(c1nc2ccccc2s1)N1CCN(Cc2nc(-c3ccc(F)cc3)cs2)CC1	882
CC1=NS(=O)(=O)N(Cc2ccccc2)C=C1C(=O)OCc1nc(-c2ccccc2Cl)no1	1130
O=C(NCc1ccc(F)cc1)[C@@H]1COCC(=O)N1Cc1ccc(F)cc1	791
CCCNC(=O)N(C)CCc1noc(COc2ccc(Cl)cc2)n1	833
O=C(N1CCC[C@H]1c1nc(-c2ccccc2)n[nH]1)C1(c2ccccc2)CC1	785

Compound	RP-LC retention time [s]
COc1ccc(NC(=O)C2CCN(S(=O)(=O)c3c(C)nn(-c4ccccc4)c3C)CC2)c(OC)c1	940
CCc1noc(C2CCCCN2C(=O)c2c[nH]c3ccccc23)n1 (configuration not stated)	647
CCc1nnc(-c2ccc3ccn(CC(=O)Nc4ccc(CN5CCN(CC)CC5)cc4)c3c2)o1	612
CCCN1C(=O)c2c(C(=O)NCc3ccc(F)cc3)ncn2CC1(C)C(=O)NCCC(C)C (configuration not stated)	824
CCc1cc(C2CCCN2C(=O)Nc2cccc(Cl)c2)on1 (configuration not stated)	924
Cc1ccc(N2CCN(C(=O)c3cn(-c4ccc(NC(=O)C5CC5)cn4)cn3)CC2)c(C)c1	913
CCC(=O)N1CCc2cc(CNS(=O)(=O)c3ccc(F)cc3)ccc21	838
CN(CC(=O)N1CCN(c2cccc(Cl)c2)CC1)S(=O)(=O)c1c[nH]c(C(=O)N2CCCC2)c1	834
Cc1c(C(=O)NCC(C)C)cnn1-c1ccc(-c2nc(C(C)(C)C)no2)cn1	1110
O=C(C1CC1)N1CCc2sc(S(=O)(=O)Nc3cccc(F)c3)cc2C1	829
c1ccc2oc(SCc3cn4ccsc4n3)nc2c1	653
CC(=O)c1cccc(NC(=O)N2C[C@H](c3nc(-c4ccncc4)no3)[C@@H](C)C2)c1	674
Cc1ccccc1OCc1nc(CCN(C)C(=O)c2ccc(Br)o2)no1	951
Cc1ccccc1NC(=O)C1CCCN1S(=O)(=O)c1cc2c(cc1C)NC(=O)CO2 (configuration not stated)	763
CCn1c(=O)c2c(cc(C)n2C)n(CC(=O)Nc2ccc(F)cc2)c1=O	780
COc1ccc(Cl)cc1NC(=O)NC1CCN(c2ccc(C)cc2)C1=O (configuration not stated)	931
Cn1cnc2c(C(=O)Nc3cccc(C(F)(F)F)c3)nn(-c3ccccc3)c2c1=O	970
Cc1ccnc(SCC(=O)Nc2nc(-c3ccccc3)c(-c3ccccc3)o2)n1	959
COc1ccc(NC(=O)c2nc(N3CCCC3)c3c(C)cc(C)nc3n2)c(C)c1	666
Cc1nn(-c2ccccc2)c(C)c1S(=O)(=O)N1CCC(C(=O)N2CCCCCC2)CC1	912
COc1ccc(S(=O)(=O)N2CCc3nc(-c4ccc(F)cc4)ncc3C2)cc1Cl	1140
